Measured values published in patent US9598396B2, “Tetrahydrophenanthridinones and tetrahydrocyclopentaquinolinones as PARP and tubulin polymerization inhibitors” (Janssen Pharmaceutica NV, priority 2008, dated 2017).

Key:
Format in all cases: biochemical
TANK-2 enzyme = TANK-2 enzyme (Homo sapiens (Human), UniProt Q9H2K2); assay: In vitro Scintillation Proximity Assay (SPA) for TANK-2 inhibitory activity; details: auto-poly(ADP-ribosyl)ation, [3H]-NAD+, Ni flash plates (96 or 384 well)
Method: C.2.In Vitro Scintillation Proximity Assay (SPA) for TANK-2 Inhibitory Activity
Compounds of the present invention were tested in an in vitro assay based on SPA technology with Ni Flash plates (96 or 384 well).
In principle, the assay relies upon SPA technology for the detection of auto-poly(ADP-ribosyl)ation of TANK-2 protein using [^3H]-nicotinamide adenine dinucleotide ([^3H]-NAD^+) as ADP-ribosyl donor.
A stock solution of 100 nM [^3H]-NAD^+/NAD (0.1 mCi/ml, supplier: Perkin Elmer) and 25 μM NAD (Sigma) was made in assay buffer (60 mM Tris/HCl, pH 7.4; 0.9 mM DTT; 6 mM MgCl2). The TANK-2 enzyme was produced as described in EP1238063. 60 μl of assay buffer, together with 1 μl of compound in DMSO, 20 μl of [^3H]-NAD^+/NAD and 20 μl of TANK-2 enzyme (final concentration 8 μg/ml) was added per well into a 96-well Ni-coated flash plate (Perkin Elmer). After incubation of the mixture for 120 minutes at room temperature, the reaction was terminated by adding 60 μl of stopsolution (42.6 mg NAD in 6 ml H2O). The plates were covered with a plate sealer and placed in a TopCountNXT™ (Packard) for scintillation counting. Values were expressed as counts per minute (cpm). For each experiment, controls (containing TANK-2 enzyme and DMSO without compound), a blank incubation (containing DMSO but no TANK-2 enzyme or compound) and samples (containing TANK-2 enzyme and compound dissolved in DMSO) were run in parallel. All compounds tested were dissolved and eventually further diluted in DMSO. In first instance, compounds were tested at a concentration of 10^−5M. […] In each test, the blank value was subtracted from both the control and the sample values. The control sample represented maximal TANK-2 enzyme activity. For each sample, the amount of cpm was expressed as a percentage of the mean cpm value of the controls. […] Herein the effects of test compounds are expressed as pIC50 (the negative log value of the IC50-value). As reference compounds, 3-aminobenzamide and 4-amino-1,8-naphtalimide were included to validate the SPA assay. Herein the assay was described using 96-well plates. In the assay using 384-well plates the same final concentrations were used and volumes were adapted.

tubulin = assay: Tubulin polymerization assay; details: inhibition of polymerization at 20 μM and 5 μM
Method: Example C.5 Polymerization Assay
The tubulin polymerization assay is an adaptation of an assay originally described by Bonne, D. et al. (J. Biol. Chem., 1985, 260:2819-25). The assay kit was purchased from Cytoskeleton, Inc. (catalogue number BK011) and the assay was performed as described by the supplier with the following modifications. The assay was run in a 384-well black Proxiplate (Perkin Elmer) and volumes were adapted accordingly. The reactions were carried out in a final volume of 10 μl. Compounds were added to 25 μl of the reaction mix in 96-well PP plates (Corning) on ice and 10 μl of this mixture was dispensed into duplicates of the 384-well Proxiplates pre-warmed to 37° C. in a Fluoroskan Ascent plate reader (Thermo Scientific). Fluorescence measurements were taken every minute for one hour. The maximum slope of each well was determined (linear regression through 4 consecutive points) and polymerization was calculated as a percentage of polymerization observed in the absence of compound.

Human PARP-1 enzyme = Human PARP-1 enzyme (Homo sapiens (Human), UniProt P09874); assay: In vitro Scintillation Proximity Assay (SPA) for PARP-1 inhibitory activity; details: nicked DNA activated PARP-1, [3H]-NAD+, biotinylated histones
Method: C.1.In Vitro Scintillation Proximity Assay (SPA) for PARP-1 Inhibitory Activity
Compounds of the present invention were tested in an in vitro assay based on SPA technology (proprietary to GE healthcare).
In principle, the assay relies upon the well established SPA technology for the detection of poly(ADP-ribosyl)ation of biotinylated target proteins, i.e histones. This ribosylation is induced using nicked DNA activated PARP-1 enzyme and [^3H]-nicotinamide adenine dinucleotide ([^3H]-NAD^+) as ADP-ribosyl donor.
Histones (type II-A, supplier: Sigma) were biotinylated using the biotinylation kit of Amersham and stored aliquoted at −20° C. A stock solution of 100 mg/ml SPA poly(vinyl toluene) (PVT) beads (supplier: Amersham) was made in PBS. A stock solution of 61.6 nM […] was made by adding [^3H]-NAD^+ (0.1 mCi/ml, supplier: Perkin Elmer) to incubation buffer (50 mM Tris/HCl, pH 8; 0.2 mM DTT; 4 mM MgCl2). A solution of 4 mM NAD^+ (supplier: Sigma) was made. Human PARP-1 enzyme was obtained from Trevigen. Biotinylated histones and PVT-SPA beads were mixed and pre-incubated for 30 minutes at room temperature. PARP-1 enzyme (concentration was lot dependent) was mixed with the nicked DNA and the mixture was pre-incubated for 30 minutes at 4° C. Equal parts of this histones/PVT-SPA beads solution and PARP-1 enzyme/DNA solution were mixed and 75 μl of this mixture together with 1 μl of compound in DMSO and 25 μl of [^3H]-NAD^+was added per well into a 96-well microtiterplate. The final concentrations in the incubation mixture were 2 μg/ml for the biotinylated histones, 2 mg/ml for the PVT-SPA beads, 0.25 μg/ml for the nicked DNA and between 0.1-0.2 μg/ml for the PARP-1 enzyme. After incubation of the mixture for 20 minutes at room temperature, the reaction was terminated by adding 100 μl of 4 mM NAD^+ in water (final concentration 2 mM) and plates were mixed. The beads were sedimented by centrifugation (10 min, 800 rpm) and plates transferred to a TopCountNXT™ (Packard) for scintillation counting, values were expressed as counts per minute (cpm). For each experiment, controls (containing PARP-1 enzyme and DMSO without compound), a blank incubation (containing DMSO but no PARP-1 enzyme, no DNA or compound) and samples (containing PARP-1 enzyme, DNA and compound dissolved in DMSO) were run in parallel. All compounds tested were dissolved and eventually further diluted in DMSO. A dose-response curve was made wherein the compounds were tested at concentrations between 10^−5M and 3×10^−9M. In each test, the blank value was subtracted from both the control and the sample values. The control sample represented maximal PARP-1 enzyme activity. For each sample, the amount of cpm was expressed as a percentage of the mean cpm value of the controls. […] Herein the effects of test compounds are expressed as pIC50 (the negative log value of the IC50-value). As a reference compound, 4-amino-1,8-naphthalimide was included to validate the SPA assay.

Sequence of Human PARP-1 enzyme (P09874 whole entry): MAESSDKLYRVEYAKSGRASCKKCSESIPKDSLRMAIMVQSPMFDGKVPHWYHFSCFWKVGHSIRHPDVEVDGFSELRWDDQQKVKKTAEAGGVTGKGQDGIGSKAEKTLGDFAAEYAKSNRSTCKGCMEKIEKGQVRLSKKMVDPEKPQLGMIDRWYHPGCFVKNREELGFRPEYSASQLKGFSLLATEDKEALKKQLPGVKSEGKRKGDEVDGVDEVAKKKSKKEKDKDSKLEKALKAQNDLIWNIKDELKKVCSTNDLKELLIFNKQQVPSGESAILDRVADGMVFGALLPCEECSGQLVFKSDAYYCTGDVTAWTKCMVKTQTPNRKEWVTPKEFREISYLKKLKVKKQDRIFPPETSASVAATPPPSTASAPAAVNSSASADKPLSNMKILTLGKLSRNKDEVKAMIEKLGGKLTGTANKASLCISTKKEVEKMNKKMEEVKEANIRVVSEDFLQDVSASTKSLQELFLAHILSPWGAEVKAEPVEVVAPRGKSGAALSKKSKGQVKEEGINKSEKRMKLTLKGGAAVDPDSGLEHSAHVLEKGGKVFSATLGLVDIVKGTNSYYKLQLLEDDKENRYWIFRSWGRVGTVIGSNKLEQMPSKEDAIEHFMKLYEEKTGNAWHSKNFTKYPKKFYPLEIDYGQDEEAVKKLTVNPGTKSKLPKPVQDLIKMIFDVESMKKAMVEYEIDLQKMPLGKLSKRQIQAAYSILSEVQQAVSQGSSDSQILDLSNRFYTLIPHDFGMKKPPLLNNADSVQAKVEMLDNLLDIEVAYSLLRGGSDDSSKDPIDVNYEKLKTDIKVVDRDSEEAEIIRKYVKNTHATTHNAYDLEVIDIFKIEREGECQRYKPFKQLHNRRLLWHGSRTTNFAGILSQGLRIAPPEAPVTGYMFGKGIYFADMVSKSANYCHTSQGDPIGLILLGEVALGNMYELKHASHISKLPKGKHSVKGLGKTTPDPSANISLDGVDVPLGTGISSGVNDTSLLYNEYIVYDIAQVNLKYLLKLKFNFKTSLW
Sequence of TANK-2 enzyme (Q9H2K2 whole entry): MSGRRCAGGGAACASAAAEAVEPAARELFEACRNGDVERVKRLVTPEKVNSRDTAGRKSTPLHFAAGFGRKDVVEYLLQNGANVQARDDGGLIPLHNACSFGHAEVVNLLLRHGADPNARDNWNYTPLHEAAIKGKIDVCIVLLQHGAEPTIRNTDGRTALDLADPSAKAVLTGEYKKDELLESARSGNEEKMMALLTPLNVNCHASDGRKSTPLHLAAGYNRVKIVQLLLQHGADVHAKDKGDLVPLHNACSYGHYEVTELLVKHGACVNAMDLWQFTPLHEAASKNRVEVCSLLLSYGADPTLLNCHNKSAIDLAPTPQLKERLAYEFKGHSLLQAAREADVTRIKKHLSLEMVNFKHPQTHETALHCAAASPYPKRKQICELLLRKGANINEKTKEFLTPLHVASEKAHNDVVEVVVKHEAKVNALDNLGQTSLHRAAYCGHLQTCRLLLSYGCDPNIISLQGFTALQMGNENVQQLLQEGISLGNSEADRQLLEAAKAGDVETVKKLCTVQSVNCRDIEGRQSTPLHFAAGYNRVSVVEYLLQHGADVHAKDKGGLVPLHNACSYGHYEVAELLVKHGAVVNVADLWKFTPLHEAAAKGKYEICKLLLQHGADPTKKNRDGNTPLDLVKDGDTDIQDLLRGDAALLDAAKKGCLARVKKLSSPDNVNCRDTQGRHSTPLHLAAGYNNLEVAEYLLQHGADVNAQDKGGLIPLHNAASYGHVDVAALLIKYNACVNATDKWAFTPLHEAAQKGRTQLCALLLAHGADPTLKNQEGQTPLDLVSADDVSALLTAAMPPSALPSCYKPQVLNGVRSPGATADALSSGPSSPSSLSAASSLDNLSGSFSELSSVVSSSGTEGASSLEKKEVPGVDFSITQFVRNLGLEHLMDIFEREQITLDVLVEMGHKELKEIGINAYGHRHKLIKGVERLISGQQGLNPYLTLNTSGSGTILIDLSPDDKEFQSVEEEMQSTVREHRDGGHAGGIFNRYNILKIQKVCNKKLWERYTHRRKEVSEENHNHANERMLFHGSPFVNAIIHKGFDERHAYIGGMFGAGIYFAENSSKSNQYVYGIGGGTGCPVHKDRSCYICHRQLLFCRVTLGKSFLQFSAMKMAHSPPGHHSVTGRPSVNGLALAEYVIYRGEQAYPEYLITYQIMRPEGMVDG

| in vitro SPA assay TANK-2 pIC50 (TANK-2 enzyme) | in vitro SPA assay PARP-1 pIC50 (Human PARP-1 enzyme) | Compound | Assay Tubulin Polymerization score (tubulin) |
| --- | --- | --- | --- |
| 7.85 | 7.44 | CC(C#N)(Cc1ccccc1)c1ccc2c3c(c(=O)[nH]c2c1)CCCC3 (stereo not drawn) [Co. No. 1] | 2 |
| 7.76 | 9.03 | CC(C#N)(Cc1cccc(C#N)c1)c1ccc2c3c(c(=O)[nH]c2c1)CCCC3 (stereo not drawn) [Co. No. 4] | 2 |
| 7.71 | 9.01 | CC(C#N)(Cc1cccc(F)c1)c1ccc2c3c(c(=O)[nH]c2c1)CCCC3 (stereo not drawn) [Co. No. 5] | 2 |
| 8.02 | 8.38 | CC(C#N)(Cc1cccc(C#N)n1)c1ccc2c3c(c(=O)[nH]c2c1)CCCC3 (stereo not drawn) [Co. No. 7] | 3 (a compound showing more than 50% inhibition at 5 μM is reported as score 3) |
| 7.28 | 7.08 | CC(C#N)(Cc1cccc(Cl)c1)c1ccc2c3c(c(=O)[nH]c2c1)CCCC3 (stereo not drawn) [Co. No. 8] | 2 |
| 7.28 | 7.35 | CC(C#N)(CCOc1ccc(C#N)cc1)c1ccc2c3c(c(=O)[nH]c2c1)CCCC3 (stereo not drawn) [Co. No. 17] | 2 |
